What was measured:
EV71-4643 = experiment: plaque reduction assay, EV71-4643; format: cell-based, Enterovirus 71 (EV71); settings: Enterovirus A, vero cells, plaques counted after 96 hours at 35° C.
Source text: (§1) Enterovirus 71 (EV71) isolates were obtained from Chang Gung Children's Hospitals (Taipei, Taiwan) and National Cheng Kung University Hospital (Tainan, Taiwan). EV71-2231 and EV71-1743 were isolated from throat swabs. EV71-2086 was isolated from the skin lesion of an implicated HFMD (hand, foot, and mouth disease) patient. EV71-4643 was a clinical isolate obtained from the throat swabs of a patient with encephalitis). BrCr, the prototype of EV71, was obtained from the American Type Culture Collection (ATCC Accession No. VR 784). Vero cells (ATCC Accession No. CCL-81) were used for virus isolation and propagation.
(§2) The antiviral activity of a number of imidazolidinone compounds was determined by a standard plaque reduction assay as described in Otto et al., Antimicrobial Agents & Chemotherapy, 1985, 27:883-886.
(§3) A compound to be tested was serially diluted and included in the agar-medium overlay. Plates were incubated at 35° C. for 96 hours. The plaques were stained with crystal violet and counted.

EV71-2231 = experiment: plaque reduction assay, EV71-2231; format: cell-based, Enterovirus 71 (EV71); settings: Enterovirus A, vero cells, plaques counted after 96 hours at 35° C.
Source text: as §1, §2, §3

Row | IC50 (EV71-4643) | IC50 (EV71-2231) | SMILES
1 | ≤ 0.0381 µM | ≤ 0.0381 µM | CCO/N=C/c1ccc(OCC[C@@H](C)CCN2CCN(c3ccncc3)C2=O)cc1 [Compound 8, 4-[(S)-3-methyl-5-(2-oxo-3-pyridin-4-yl-imidazolidin-1-yl)-pentyloxy]-benzaldehyde O-ethyl-oxime]
2 | ≤ 0.0381 µM | ≤ 0.0381 µM | CCO/N=C/c1ccc(OCCC(C)CCN2CCN(c3ccncc3)C2=O)cc1 (centres unmarked) [Compound 5, 4-[3-methyl-5-(2-oxo-3-pyridin-4-yl-imidazolidin-1-yl)-pentyloxy]-benzaldehyde O-ethyl-oxime]
3 | ≤ 0.0381 µM | ≤ 0.0381 µM | CCO/N=C/c1ccc(OCC[C@H](C)CCN2CCN(c3ccncc3)C2=O)cc1 [Compound 7, 4-[(R)-3-methyl-5-(2-oxo-3-pyridin-4-yl-imidazolidin-1-yl)-pentyloxy]-benzaldehyde O-ethyl-oxime]
4 | ≤ 0.0381 µM | ≤ 0.0381 µM | CCO/N=C/c1ccc(OCCC(C)(C)CCN2CCN(c3ccncc3)C2=O)cc1 [Compound 6, 4-[3,3-dimethyl-5-(2-oxo-3-pyridin-4-yl-imidazolidin-1-yl)-pentyloxy]-benzaldehyde O-ethyl-oxime]

— patent publication US7259174B2, “Imidazolidinone compounds” (National Health Research Institutes, priority 2004, dated 2007)
